Assay [1] deals with transgenic mice expressing a hen egg lysozyme (HEL)-specific T cell receptor (3A9) crossed with MHC class II transgenic mice. Put plainly: In vivo antigen pulse of 3A9 x MHC class II transgenic crosses, spleen cell analysis. The conditions noted are these: 100 μg, six days after injection. The procedure: Mouse spleens were removed after sacrifice and placed into 4 ml PBS, 0.1% BSA in a petri dish. A single cell suspension was prepared using the frosted ends of two microscope slides. Cells were then transferred into a 15 ml tube. The cell suspension was underlayed with 2 ml Ficoll-paque and then centrifuged for 15 min. at 1,000×g. Lymphocytes at the interface were collected and washed 3× with ice-cold 15 ml PBS, 0.1% BSA. Cells were counted and resuspended to 1.6×10^7 viable cells per ml concentration, in RPMI 1640 25 mM HEPES, 50 μM 2-ME, 10% FBS, 1× L-glutamine, 1× sodium pyruvate, 1× nonessential amino acids.
The FACScalibur, flow cytometer was calibrated using Becton-Dickinson calibration beads prior to each four color analysis run. Cells also were analyzed on a FACScan™ with CellQuest software (Becton Dickinson, San Jose, Calif.).
Two different crosses between the mice carrying the different transgenes were generated. Transgenic mice expressing a hen egg lysozyme (HEL)-specific T cell receptor (3A9) were crossed with: (i) the transgenic mice expressing wild type MIIC class II on a null MHC class II background, and (ii) the transgenic mice expressing hybrid MHC class II-MCH class I molecules on a null MHC class II background.
Mice, 4-8 weeks old, generated from the above-identified crosses were pulsed in vivo with an injection of 100 μg total of antigen (HEL). Six days after injenction, the cells from splenes were harvested, as described above, and analyzed. […] Additionally, the “tail” of MHC class II is not necessary for the proper loading and presentation of antigen.

Assay [2] relates to L1210/DDP cells. Briefly: Methotrexate-induced cell death (flow cytometry, ethidium bromide, DNA fragments). Type of assay: cell-based, mouse (BALB/c-derived). The procedure: (§1) L1210 and L1210/DDP cells were treated overnight with 5×10^−7 M methotrexate. […] The forward scatter low populations took up ethidium bromide differentially. The L1210 cells took up a moderate amount of ethidium bromide whereas the L1210/DDP cells took up large amounts. […] This latter phenotype—loss in forward scatter and membrane permeability with no “DNA laddering”—is the hall mark of oncosis.
(§2) L1210 and L1210/DDP cells were treated with a dose of methotrexate that produced moderate amounts of cell death. (Even though L1210/DDP is “methotrexate resistant”, the drug does induce cell death in the cultures; the surviving cells which grow out of the culture are responsible for the lines “drug resistant” appellation).

The subject of assay [3] is L1210 cells. Described as above. Type of assay: cell-based, mouse (BALB/c-derived). The procedure:
as §1, §2

Assay [4] has as its system Total splenic B cells from C3H, AKR, C3H.lpr and MRL.gld mice. Briefly: DNA content of total splenic B cells (saponin/propidium iodide flow cytometry). Type of assay: cell-based. The following applies: B cells from lpr animals compared with normal animals.
Description: Total splenic B cells were isolated from C3H, AKR, C3H.lpr, and MRL.gld mice. The cells were cultured overnight, harvested, permeabilized in saponin, stained with propidium iodide (PI) which intercalates into DNA, and analyzed by flow cytometry. Because the majority of cells in these preparations are either resting or “growth arrested,” the predominant peak in the untreated samples is the G0/G1 peak (2N DNA).
The test system of assay [5] is Splenic B cells from AKR mice (resting, in vitro primed, in vivo activated). Briefly: Apoptotic death of splenic B cells scored by nucleosome-sized DNA fragments (densitometry). Type of assay: cell-based. The following applies: 10 μM, primed and activated B cells.
Description: Splenic B cells from AKR mice were separated on a Percoll density gradient and two fractions were collected: small, high-density, resting B cells were obtained from the 1.079<ρ<1.085 g/ml interface and large in vivo activated B cells were collected at the BSS<ρ<1.066 g/ml interface. In vitro primed B cells were obtained by treating resting B cells with 16U recombinant IL-4 and by incubating them overnight on anti-Ig-coated plates. […] Apoptotic death was scored by quantitating the formation of nucleosome-sized DNA fragments by densitometry.
[6] abbreviates: 3A9×wild type MHC class II on null background.

For hen egg lysozyme [HEL], the “T cells in spleen” value in assay [1] (3A9×hybrid MHC class II-MHC class I on null background) was “a CD4^+ T cell subset missing”; in assay [1] (setting [6]), “normal T cell numbers”. In assay [1] (setting [6]), the “MHC class II bearing B cells in spleen” value is listed as “no MHC class II bearing B cells”.

Consider `CN(Cc1cnc2nc(N)nc(N)c2n1)c1ccc(C(=O)N[C@@H](CCC(=O)O)C(=O)O)cc1` [methotrexate], for which the “mode of cell death” value in assay [2] is “die by oncosis”; in assay [3] (L1210) it was “die by apoptosis”. Moreover, the DNA fragments entry is “did not” in assay [2] (5×10^−7 M overnight) and “produced a ladder of nucleosome sized fragments indicative of apoptosis” in assay [3] (L1210, 5×10^−7 M overnight).

On to `CC[C@H]1CN2CCc3cc(OC)c(OC)cc3[C@@H]2C[C@@H]1C[C@H]1NCCc2cc(OC)c(OC)cc21` [emetine], for which, in assay [4], the “DNA fragmentation, lpr vs normal B cells” value is “equally capable of fragmenting DNA”.

For the compound `CC(C)NCC(O)c1ccc(O)c(O)c1` (stereo not drawn) [isoproterenol], the induction of apoptosis result in assay [5] is on record as “induces apoptosis in all three populations”.

(Values after patent US20030138433A1, “Autologous adoptive immunotherapy with antigen-specific primed T cells or B cells to promote antigen-specific immune responses with an appropriate cytokine bias” (priority 1999, published 2003).)
